# Target: T1, Vitamin D3 receptor (Homo sapiens) (UniProt P11473)
# T1 sequence (whole entry): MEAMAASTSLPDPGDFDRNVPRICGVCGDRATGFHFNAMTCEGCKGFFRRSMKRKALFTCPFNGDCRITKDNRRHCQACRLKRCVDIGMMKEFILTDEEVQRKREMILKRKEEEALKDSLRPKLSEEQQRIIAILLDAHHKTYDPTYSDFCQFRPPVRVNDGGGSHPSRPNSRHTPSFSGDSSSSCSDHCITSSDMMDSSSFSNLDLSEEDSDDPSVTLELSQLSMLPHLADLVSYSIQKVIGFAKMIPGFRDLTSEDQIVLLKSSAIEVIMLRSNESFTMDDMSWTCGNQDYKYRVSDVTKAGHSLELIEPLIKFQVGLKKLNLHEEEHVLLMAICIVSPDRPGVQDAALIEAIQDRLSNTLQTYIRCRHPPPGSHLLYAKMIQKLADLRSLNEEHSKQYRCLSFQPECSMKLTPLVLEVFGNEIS
# Experiment: Antagonist activity against 1-alpha,25-dihydroxy vitamin D3-induced HL60 cell differentiation by NBT reduction method relative to TEI-9647
# Format: functional, cell-based
# Parameters: scale not given: the % may be the effect or the level left
# Conditions: HL-60
row,Activity [%],Compound
1,40,C=C1C(=O)O[C@@H](C[C@@H](C)[C@H]2CC[C@H]3/C(=C/C=C4/C[C@@H](O)C[C@H](O)C4=C)CCC[C@]23C)[C@@H]1CC(C)C
2,100,C=C1C[C@@H](C[C@@H](C)[C@H]2CC[C@H]3/C(=C/C=C4/C[C@@H](O)[C@H](CCCO)[C@H](O)C4=C)CCC[C@]23C)OC1=O
3,1020,C=C1C[C@H](C[C@@H](C)[C@H]2CC[C@H]3/C(=C/C=C4/C[C@@H](O)[C@H](C)[C@H](O)C4=C)CCC[C@]23C)OC1=O
4,8,C=C1/C(=C\C=C2/CCC[C@]3(C)[C@@H]([C@H](C)C[C@H]4OC(=O)C(=C)[C@@H]4C)CC[C@@H]23)C[C@@H](O)[C@H](CCCO)[C@@H]1O
5,85100,C=C1/C(=C\C=C2/CCC[C@]3(C)[C@@H]([C@H](C)C[C@@H]4OC(=O)C(=C)[C@@H]4CCC)CC[C@@H]23)C[C@@H](O)[C@H](OCCCO)[C@@H]1O
6,18,C=C1C(=O)O[C@H](C[C@@H](C)[C@H]2CC[C@H]3/C(=C/C=C4/C[C@@H](O)C[C@H](O)C4=C)CCC[C@]23C)[C@@H]1C
7,216,C=C1/C(=C\C=C2/CCC[C@]3(C)[C@@H]([C@H](C)C[C@@H]4OC(=O)C(=C)[C@H]4CCCC)CC[C@@H]23)C[C@@H](O)[C@H](C)[C@@H]1O
8,1,C=C1/C(=C\C=C2/CCC[C@]3(C)[C@@H]([C@H](C)C[C@H]4OC(=O)C(=C)[C@@H]4CCCC)CC[C@@H]23)C[C@@H](O)[C@H](C)[C@@H]1O
9,74,C=C1/C(=C\C=C2/CCC[C@]3(C)[C@@H]([C@H](C)C[C@H]4OC(=O)C(=C)[C@H]4CC)CC[C@@H]23)C[C@@H](O)[C@H](C)[C@@H]1O
10,3750,C=C1/C(=C\C=C2/CCC[C@]3(C)[C@@H]([C@H](C)C[C@@H]4OC(=O)C(=C)[C@@H]4C)CC[C@@H]23)C[C@@H](O)[C@H](C)[C@@H]1O
11,600,C=C1/C(=C\C=C2/CCC[C@]3(C)[C@@H]([C@H](C)C[C@@H]4OC(=O)C(=C)[C@@H]4CC)CC[C@@H]23)C[C@@H](O)[C@H](OCCCO)[C@@H]1O
12,174,C=C1/C(=C\C=C2/CCC[C@]3(C)[C@@H]([C@H](C)C[C@@H]4OC(=O)C(=C)[C@@H]4CC(C)C)CC[C@@H]23)C[C@@H](O)C[C@@H]1O
13,303,C=C1/C(=C\C=C2/CCC[C@]3(C)[C@@H]([C@H](C)C[C@H]4OC(=O)C(=C)[C@@H]4CCCC)CC[C@@H]23)C[C@@H](O)[C@H](CCCO)[C@@H]1O
14,1220,C=C1/C(=C\C=C2/CCC[C@]3(C)[C@@H]([C@H](C)C[C@@H]4OC(=O)C(=C)[C@@H]4CC(C)C)CC[C@@H]23)C[C@@H](O)[C@H](C)[C@@H]1O
15,25,C=C1/C(=C\C=C2/CCC[C@]3(C)[C@@H]([C@H](C)C[C@H]4OC(=O)C(=C)[C@H]4CC(C)C)CC[C@@H]23)C[C@@H](O)[C@H](OCCCO)[C@@H]1O
16,37,C=C1/C(=C\C=C2/CCC[C@]3(C)[C@@H]([C@H](C)C[C@H]4OC(=O)C(=C)[C@H]4CCCC)CC[C@@H]23)C[C@@H](O)[C@H](OCCCO)[C@@H]1O
17,< 0.3,C=C1/C(=C\C=C2/CCC[C@]3(C)[C@@H]([C@H](C)C[C@H]4OC(=O)C(=C)C45CC5)CC[C@@H]23)C[C@@H](O)C[C@@H]1O
18,25,C=C1/C(=C\C=C2/CCC[C@]3(C)[C@@H]([C@H](C)C[C@H]4OC(=O)C(=C)[C@@H]4CC)CC[C@@H]23)C[C@@H](O)[C@H](OCCCO)[C@@H]1O
19,476,C=C1C(=O)O[C@H](C[C@@H](C)[C@H]2CC[C@H]3/C(=C/C=C4/C[C@@H](O)[C@H](C)[C@H](O)C4=C)CCC[C@]23C)[C@@H]1C
20,97,C=C1/C(=C\C=C2/CCC[C@]3(C)[C@@H]([C@H](C)C[C@H]4OC(=O)C(=C)[C@H]4CCC)CC[C@@H]23)C[C@@H](O)[C@H](OCCCO)[C@@H]1O

row,Activity [%],Compound
1,12,C=C1/C(=C\C=C2/CCC[C@]3(C)[C@@H]([C@H](C)C[C@H]4OC(=O)C(=C)[C@@H]4CCC)CC[C@@H]23)C[C@@H](O)[C@H](C)[C@@H]1O
2,58,C=C1C(=O)O[C@@H](C[C@@H](C)[C@H]2CC[C@H]3/C(=C/C=C4/C[C@@H](O)C[C@H](O)C4=C)CCC[C@]23C)[C@@H]1CCCC
3,41,C=C1C(=O)O[C@H](C[C@@H](C)[C@H]2CC[C@H]3/C(=C/C=C4/C[C@@H](O)[C@H](OCCCO)[C@H](O)C4=C)CCC[C@]23C)[C@@H]1C
4,229,C=C1/C(=C\C=C2/CCC[C@]3(C)[C@@H]([C@H](C)C[C@@H]4OC(=O)C(=C)[C@H]4CC(C)C)CC[C@@H]23)C[C@@H](O)[C@H](C)[C@@H]1O
5,7,C=C1C[C@@H](C[C@@H](C)[C@H]2CC[C@H]3/C(=C/C=C4/C[C@@H](O)C[C@H](O)C4=C)CCC[C@]23C)OC1=O
6,50,C=C1/C(=C\C=C2/CCC[C@]3(C)[C@@H]([C@H](C)C[C@H]4OC(=O)C(=C)[C@H]4CC(C)C)CC[C@@H]23)C[C@@H](O)[C@H](C)[C@@H]1O
7,291,C=C1/C(=C\C=C2/CCC[C@]3(C)[C@@H]([C@H](C)C[C@@H]4OC(=O)C(=C)[C@H]4CC(C)C)CC[C@@H]23)C[C@@H](O)[C@H](OCCCO)[C@@H]1O
8,8,C=C1/C(=C\C=C2/CCC[C@]3(C)[C@@H]([C@H](C)C[C@H]4OC(=O)C(=C)[C@@H]4CCC)CC[C@@H]23)C[C@@H](O)C[C@@H]1O
9,70,C=C1C(=O)O[C@@H](C[C@@H](C)[C@H]2CC[C@H]3/C(=C/C=C4/C[C@@H](O)C[C@H](O)C4=C)CCC[C@]23C)[C@@H]1CC
10,866,C=C1/C(=C\C=C2/CCC[C@]3(C)[C@@H]([C@H](C)C[C@@H]4OC(=O)C(=C)[C@H]4CC)CC[C@@H]23)C[C@@H](O)[C@H](CCCO)[C@@H]1O
11,4,C=C1/C(=C\C=C2/CCC[C@]3(C)[C@@H]([C@H](C)C[C@H]4OC(=O)C(=C)[C@@H]4CCCC)CC[C@@H]23)C[C@@H](O)C[C@@H]1O
12,60,C=C1C(=O)O[C@@H](C[C@@H](C)[C@H]2CC[C@H]3/C(=C/C=C4/C[C@@H](O)C[C@H](O)C4=C)CCC[C@]23C)[C@@H]1CCC
13,12,C=C1/C(=C\C=C2/CCC[C@]3(C)[C@@H]([C@H](C)C[C@H]4OC(=O)C(=C)[C@@H]4C)CC[C@@H]23)C[C@@H](O)[C@H](OCCCO)[C@@H]1O
14,12100,C=C1/C(=C\C=C2/CCC[C@]3(C)[C@@H]([C@H](C)C[C@@H]4OC(=O)C(=C)[C@H]4CCC)CC[C@@H]23)C[C@@H](O)[C@H](OCCCO)[C@@H]1O
15,158,C=C1/C(=C\C=C2/CCC[C@]3(C)[C@@H]([C@H](C)C[C@@H]4OC(=O)C(=C)[C@H]4CC)CC[C@@H]23)C[C@@H](O)[C@H](OCCCO)[C@@H]1O
16,102,C=C1/C(=C\C=C2/CCC[C@]3(C)[C@@H]([C@H](C)C[C@H]4OC(=O)C(=C)[C@H]4CCCC)CC[C@@H]23)C[C@@H](O)[C@H](C)[C@@H]1O
17,179,C=C1/C(=C\C=C2/CCC[C@]3(C)[C@@H]([C@H](C)C[C@@H]4OC(=O)C(=C)[C@@H]4CCCC)CC[C@@H]23)C[C@@H](O)C[C@@H]1O
18,1660,C=C1/C(=C\C=C2/CCC[C@]3(C)[C@@H]([C@H](C)C[C@@H]4OC(=O)C(=C)[C@@H]4CCCC)CC[C@@H]23)C[C@@H](O)[C@H](OCCCO)[C@@H]1O
19,6190,C=C1C(=O)O[C@@H](C[C@@H](C)[C@H]2CC[C@H]3/C(=C/C=C4/C[C@@H](O)[C@H](C)[C@H](O)C4=C)CCC[C@]23C)[C@@H]1C

# Reference: ChEMBL document CHEMBL1137357, “Further synthetic and biological studies on vitamin D hormone antagonists based on C24-alkylation and C2alpha-functionalization of 25-dehydro-1alpha-hydroxyvitamin D(3)-26,23-lactones” (J Med Chem, 2006)
